4 molecules from publication PMC6071264 (Toxins, 2018) can be followed below.

Molecules are shown by their SMILES. Bridge positions count the residues as written; N and C are the ends. Peptide text beside a SMILES is read from it.

One assay deals with T84 cells (Homo sapiens, UniProt P25092). Put plainly: T84 cell assay (cGMP response). In kind it is cell-based. To be noted: read-out: EC50 in the T84 cell assay, pre-incubation 1 mM IBMX 10 min, sample 60 min at 37 °C, cGMP enzyme immunoassay, three independent experiments, four-parameter logistic regression, bottom set to zero, Figure 2C.
For assay [1], the system named is C30 anti-STp monoclonal antibody. The note with it: read-out: IC50, inhibition of C30 mAb binding to ELISA coating (peptides from RP-HPLC peaks).

Sequence of T84 cells (P25092 24-1073): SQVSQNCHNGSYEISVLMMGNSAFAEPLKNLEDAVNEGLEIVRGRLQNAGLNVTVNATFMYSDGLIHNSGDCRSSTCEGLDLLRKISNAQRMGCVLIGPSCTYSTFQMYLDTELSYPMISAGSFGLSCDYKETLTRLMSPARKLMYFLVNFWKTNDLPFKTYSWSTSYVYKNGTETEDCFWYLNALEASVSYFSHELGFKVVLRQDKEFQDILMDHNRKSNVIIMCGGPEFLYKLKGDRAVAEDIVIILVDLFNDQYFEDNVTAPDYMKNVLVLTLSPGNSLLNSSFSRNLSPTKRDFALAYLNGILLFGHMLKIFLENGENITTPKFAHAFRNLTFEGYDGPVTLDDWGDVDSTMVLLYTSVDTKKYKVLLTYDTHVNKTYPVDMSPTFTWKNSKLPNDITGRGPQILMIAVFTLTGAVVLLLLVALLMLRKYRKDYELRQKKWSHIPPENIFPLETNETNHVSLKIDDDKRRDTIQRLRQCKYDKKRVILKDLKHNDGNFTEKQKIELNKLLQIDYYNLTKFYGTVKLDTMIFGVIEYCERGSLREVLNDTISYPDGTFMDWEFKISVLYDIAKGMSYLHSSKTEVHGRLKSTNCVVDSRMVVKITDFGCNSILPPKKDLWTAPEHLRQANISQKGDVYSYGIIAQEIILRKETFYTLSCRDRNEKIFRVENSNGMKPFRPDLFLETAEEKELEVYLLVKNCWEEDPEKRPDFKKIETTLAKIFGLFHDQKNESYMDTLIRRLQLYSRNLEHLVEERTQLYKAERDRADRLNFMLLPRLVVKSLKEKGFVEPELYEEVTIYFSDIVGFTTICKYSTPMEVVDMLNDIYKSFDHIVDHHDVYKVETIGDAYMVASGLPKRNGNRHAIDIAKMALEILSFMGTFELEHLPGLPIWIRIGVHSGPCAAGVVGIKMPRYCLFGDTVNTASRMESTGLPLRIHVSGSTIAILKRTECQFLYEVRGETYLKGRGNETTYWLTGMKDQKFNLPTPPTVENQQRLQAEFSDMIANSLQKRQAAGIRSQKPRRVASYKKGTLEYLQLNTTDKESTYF

With `CC(C)C[C@@H]1NC(=O)[C@H](CCC(=O)O)NC(=O)[C@@H]2CSSC[C@@H]3NC(=O)[C@H](C)NC(=O)[C@@H]4CCCN4C(=O)[C@H](CC(N)=O)NC(=O)[C@H](CSSC[C@H](NC(=O)[C@H](Cc4ccc(O)cc4)NC(=O)[C@H](CC(N)=O)NC(=O)[C@H](CO)NC(=O)[C@H](CO)NC(=O)[C@@H](N)CC(N)=O)C(=O)N2)NC(=O)[C@H](CSSC[C@@H](C(=O)N[C@@H](Cc2ccc(O)cc2)C(=O)O)NC(=O)CNC(=O)[C@H]([C@@H](C)O)NC3=O)NC1=O` [ETEC STh] (H-NSSNYCCELCCNPACTGCY-OH; disulfide 6-11, 7-15, 10-18; N-terminus and C-terminus assumed), at T84 cells, the 50% effective concentration (EC50) is 22.9 ± 6.8 nM.
With `CC(C)C[C@@H]1NC(=O)[C@H](CCC(=O)O)NC(=O)[C@@H]2CSSC[C@@H]3NC(=O)[C@H](C)NC(=O)[C@@H]4CCCN4C(=O)[C@H](CC(N)=O)NC(=O)[C@H](CSSC[C@H](NC(=O)[C@H](Cc4ccc(O)cc4)NC(=O)[C@H](CC(N)=O)NC(=O)[C@H](CO)NC(=O)[C@H](CO)NC(=O)[C@@H](N)CC(N)=O)C(=O)N2)NC(=O)[C@H](CSSC[C@@H](C(=O)N[C@@H](Cc2ccc(O)cc2)C(=O)O)NC(=O)CNC(=O)[C@H]([C@@H](C)O)NC3=O)NC1=O` [STh] (H-NSSNYCCELCCNPACTGCY-OH; disulfide 6-11, 7-15, 10-18), the IC50 in assay [1] is 4.2 ± 0.3 nM. For the same molecule, the EC50 at T84 cells came to 15.4 ± 3 nM.
Regarding `CC(C)C[C@@H]1NC(=O)[C@H](CCC(=O)O)NC(=O)[C@@H]2CSSC[C@@H]3NC(=O)[C@H](C)NC(=O)[C@@H]4CCCN4C(=O)[C@H](CC(N)=O)NC(=O)[C@H](CSSC[C@H](NC(=O)[C@H](Cc4ccc(O)cc4)NC(=O)[C@H](Cc4ccccc4)NC(=O)[C@@H](NC(=O)[C@@H](N)CC(N)=O)[C@@H](C)O)C(=O)N2)NC(=O)[C@H](CSSC[C@@H](C(=O)N[C@@H](Cc2ccc(O)cc2)C(=O)O)NC(=O)CNC(=O)[C@H](C)NC3=O)NC1=O` [STp], the 50% effective concentration (EC50) on T84 cells came to 15.4 ± 3.8 nM.
For the molecule `CC(C)C[C@@H]1NC(=O)[C@H](CCC(=O)O)NC(=O)[C@@H]2CSSC[C@@H]3NC(=O)[C@H](C)NC(=O)[C@@H]4CCCN4C(=O)[C@H](CC(N)=O)NC(=O)[C@H](CSSC[C@H](NC(=O)[C@H](Cc4ccc(O)cc4)NC(=O)[C@H](CC(N)=O)NC(=O)[C@H](CO)NC(=O)[C@H](CO)NC(=O)[C@@H](N)CC(N)=O)C(=O)N2)NC(=O)[C@H](CSSC[C@@H](C(=O)N[C@@H](Cc2ccc(O)cc2)C(=O)O)NC(=O)CNC(=O)[C@H]([C@@H](C)O)NC3=O)NC1=O` [synthetic STh] (H-NSSNYCCELCCNPACTGCY-OH; disulfide 6-11, 7-15, 10-18), in assay [1], the IC50 is 2.3 ± 0.1 nM. In addition, at T84 cells, the concentration for a half-maximal effect (EC50) was 9.6 ± 1.8 nM.

Broadly, the EC50 is the concentration needed to bring the measured effect to its halfway point. As usually defined, the IC50 is the midpoint of a concentration-inhibition curve.
